Reference: patent publication US6339077B1, “Substituted 4-benzylaminoquinolines and their hetero analogs, process for their preparation, pharmaceuticals containing these compounds and use thereof” (Aventis Pharma Deutschland GmbH, priority 1999, dated 2002)
Where a name gives a salt, the structure may show the parent alone.

Legend:
[1] = biological target: T1, human NHE-3 protein (expressed in the LAP1 cell line) (Homo sapiens, UniProt P48764); experiment: Inhibition of sodium/proton exchanger subtype 3: recovery of intracellular pH after acidification (BCECF fluorescence); format: cell-based; details: pHi recovery as percentage of the maximum recovery, read-out: remaining activity of hNHE3
T1 construct: expressed in transfected cells; host or cells: LAP1 cell line
T1 sequence (P48764 26-834): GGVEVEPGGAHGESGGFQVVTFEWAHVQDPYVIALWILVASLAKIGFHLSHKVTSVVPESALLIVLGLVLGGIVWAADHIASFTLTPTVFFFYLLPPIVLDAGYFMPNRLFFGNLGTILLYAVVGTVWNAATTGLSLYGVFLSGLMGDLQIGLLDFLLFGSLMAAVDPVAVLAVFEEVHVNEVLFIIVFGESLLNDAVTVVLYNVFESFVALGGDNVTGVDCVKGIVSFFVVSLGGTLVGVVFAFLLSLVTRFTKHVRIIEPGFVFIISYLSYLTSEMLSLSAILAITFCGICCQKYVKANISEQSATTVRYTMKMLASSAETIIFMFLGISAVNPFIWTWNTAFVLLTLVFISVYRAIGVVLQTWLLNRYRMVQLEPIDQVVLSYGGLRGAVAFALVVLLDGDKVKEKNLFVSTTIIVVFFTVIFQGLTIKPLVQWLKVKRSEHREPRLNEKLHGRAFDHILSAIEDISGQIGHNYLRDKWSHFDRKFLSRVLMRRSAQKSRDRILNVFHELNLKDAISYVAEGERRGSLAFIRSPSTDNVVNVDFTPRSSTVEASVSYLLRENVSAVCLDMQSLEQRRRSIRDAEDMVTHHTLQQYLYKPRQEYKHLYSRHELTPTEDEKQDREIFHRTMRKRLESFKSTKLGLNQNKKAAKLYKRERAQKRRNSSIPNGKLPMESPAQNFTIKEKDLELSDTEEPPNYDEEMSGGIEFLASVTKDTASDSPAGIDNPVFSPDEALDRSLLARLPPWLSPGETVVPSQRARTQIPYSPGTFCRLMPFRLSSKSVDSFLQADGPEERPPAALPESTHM
Description: Biological testing of the novel compounds was accomplished by measuring inhibition of the sodium/proton exchanger subtype 3.
The remaining activity of the human NHE-3 protein (expressed in the LAP1 cell line) was determined by measuring the recovery in the intracellular pH (pHi) after an acidification, which starts when the NHE is capable of functioning, even under bicarbonate-free conditions. For this purpose, the pHi was determined using the pH-sensitive fluorescent dye BCECF (Calbiochem, the precursor BCECF-AM is employed). The cells were initially loaded with BCECF. […] The intracellular acidification was induced by addition of 975 μl of an NH4Cl-free buffer (see below) to 25 μl aliquots of the cells incubated in NH4Cl buffer. The subsequent rate of pH recovery was recorded for 3 minutes. To calculate the inhibitory power of the substances tested, the cells were initially investigated in buffers in which complete or absolutely no pH recovery took place. […] Test solutions of the substances of interest were made up in the Na^+-containing buffer. Recovery of the intracellular pH at the tested concentration of a substance was expressed as a percentage of the maximum recovery.

Row | melting point | SMILES | remaining activity at 30 µM [1]
1 | > 180 °C (dec.) | COC(=O)c1c(C)nc2cccc(C)c2c1NCc1ccc(CCC2(O)CCC3(C)C(CC(O)C4C3CC(O)C3(C)C4CC[C@@H]3C(C)CCC(=O)O)C2)cc1 (some centres unmarked) | –
2 | > 190 °C (dec.) | CCc1nc2ccccc2c(NCc2ccc(CCC3(O)CCC4(C)C(CC(O)C5C4CC(O)C4(C)C5CC[C@@H]4C(C)CCC(=O)O)C3)cc2)c1C(=O)OC (some centres unmarked) | –
3 | 223 °C (dec.) | COC(=O)c1c(C)nc2ccc(C#CC3(O)CCC4(C)C(CC(O)C5C4CC(O)C4(C)C5CC[C@@H]4C(C)CCC(=O)O)C3)cc2c1NCc1ccccc1 (some centres unmarked) | –

Further lines, the compound ahead of its results:

Row | SMILES | melting point | remaining activity at 30 µM [1]
4 | Cc1nc2ccccc2c(NCc2ccccc2)c1C(=O)NCCOC1CCC2(C)C(C1)CC(O)C1C2CC(O)C2(C)C1CC[C@@H]2C(C)CCC(=O)O (some centres unmarked) | 143 °C | –
5 | Cc1nc2ccccc2c(NCc2ccc(C#CC3(O)CCC4(C)C(CC(O)C5C4CC(O)C4(C)C5CC[C@@H]4C(C)CCC(=O)O)C3)cc2)c1C(=O)OC(C)C (some centres unmarked) | 150 °C | –
6 | Cc1nc2ccccc2c(NCc2ccccc2)c1C(=O)NCCOC1CCC2(C)C(C1)CC(O)C1C2CC(O)C2(C)C1CC[C@@H]2C(C)CCC(=O)NCCS(=O)(=O)O (some centres unmarked) (as salt: trifluoroacetate) | 180 °C | –
7 | COC(=O)c1c(C)nc2cccc(C)c2c1NCc1ccc(C#CC2(O)CCC3(C)C(CC(O)C4C3CC(O)C3(C)C4CC[C@@H]3C(C)CCC(=O)O)C2)cc1 (stereo partly drawn) [Example 11, Methyl 2,5-dimethyl-4-{4-[1-(3α,7α,12α-trihydroxy-10β,13β-dimethyl-17β-(3-carboxy-1-methylpropyl)hexadecahydrocyclopenta[a]phenanthren-3-yl)ethyn-2-yl]benzylamino}quinoline-3-carboxylate] | > 155 °C | 61%
8 | CC(=O)c1c(C)nc2ccccc2c1NCc1cccc(C#CC2(O)CC[C@@]3(C)C(CC(O)C4C3CC(O)[C@@]3(C)C4CC[C@@H]3[C@H](C)CCC(=O)O)C2)c1 (stereo partly drawn) [Example 13, 2-Methyl-3-acetyl-4-{3-[1-(3α,7α,12α-trihydroxy-10β,13β-dimethyl-17β-(3-carboxy-1-methylpropyl)hexadecahydrocyclopenta[a]phenanthren-3-yl)ethyn-2-yl]benzylamino}quinoline] | > 195 °C (dec.) | 40%
9 | CC(=O)c1c(C)nc2ccccc2c1NCc1cccc(CCC2(O)CC[C@@]3(C)C(CC(O)C4C3CC(O)[C@@]3(C)C4CC[C@@H]3[C@H](C)CCC(=O)O)C2)c1 (stereo partly drawn) [Example 14, 2-Methyl-3-acetyl-4-{3-[1-(3α,7α,12α-trihydroxy-10β,13β-dimethyl-17β-(3-carboxy-1-methylpropyl)hexadecahydrocyclopenta[a]phenanthren-3-yl)eth-2-yl]benzylamino}quinoline] | > 170 °C (dec.) | 52%
10 | CC(=O)c1c(C)nc2ccccc2c1NCc1ccc(C(=O)NCCO[C@H]2CC[C@@]3(C)C(C2)C[C@@H](O)C2C3C[C@H](O)[C@@]3(C)C2CC[C@@H]3[C@H](C)CCC(=O)O)cc1 (stereo partly drawn) [Example 20, 4-[3β-(2-{4-[(3-Acetyl-2-methylquinolin-4-ylamino)methyl]benzoylamino)-ethoxy)-7α,12α-dihydroxy-10β,13β-dimethylhexadecahydrocyclopenta[a]phenanthren-17β-yl]pentanoic acid] | > 145 °C (dec.) | 56%
